Reference: US8053585B2, “Protecting group for carboxylic acids that can be photolyzed by visible light” (Cornell Research Foundation, Inc., priority 2006, dated 2011)

Columns and labels:
Type in all cases: cell-based
GluR6 glutamate receptor [1] = assay: Stability in aqueous solution by whole-cell recording, cells used as glutamate detector; settings: 2 mM solution, 24 h in the dark at −20° C., pH 7.4
Excerpt: (§1) In whole-cell current recording experiments with DECM-caged glutamate, HEK 293 cells stably transfected with cDNA encoding the GluR6 were used. In whole-cell current recording experiments with DECM-caged glycine, HEK 293 cells were transiently transfected with the cDNA of the α1-subunit of the human glycine receptor by using the Polyfect™ transfection reagent (Qiagen GmbH, D-40724, Hilden, Germany). The cDNA of the α1-subunit was kindly provided by Professor H. Betz (Max-Plank-Institute for brain Research, Frankfurt, Germany). The cells were co-transfected with cDNA encoding the green fluorescent protein (pGreen Lantern plasmid, Life Technologies, Gaitherberg, Md.) to detect transfected cells (Chalfie et al., “Green Fluorescent Protein as a Marker for Gene Expression,” Science 263:802-805 (1994), which is hereby incorporated by reference in its entirety).
The cells were used for electrophysiological experiments between 24 and 72 h after each passage. Whole-cell currents evoked by glutamate or glycine (100 μM) were recorded using the whole-cell configuration (Hamill et al., “Improved Patch-Clamp Techniques for High-Resolution Current Recording From Cells and Cell-Free Membrane Patches,” Pfluegers Arch 391:85-100 (1981), which is hereby incorporated by reference in its entirety) at room temperature, −60 mV, and pH 7.4. […]

GluR6 glutamate receptor [2] = assay: Whole-cell current recording with cell-flow method, HEK 293 cells expressing GluR6
Excerpt: as §1
The cells were used for electrophysiological experiments between 24 and 72 h after each passage. Whole-cell currents evoked by glutamate or glycine (100 μM) were recorded using the whole-cell configuration (Hamill et al., “Improved Patch-Clamp Techniques for High-Resolution Current Recording From Cells and Cell-Free Membrane Patches,” Pfluegers Arch 391:85-100 (1981), which is hereby incorporated by reference in its entirety) at room temperature, −60 mV, and pH 7.4. The experiments using DECM-caged glutamate were carried out in the absence or presence of 2 mM DECM-caged glutamate (FIG. 5A) or 1 mM 7-N,N-diethylamino-4-hydroxymethylcoumarin (2) (FIG. 5B). Alternatively, the experiments using DECM-caged glycine were carried out in the absence or presence of 1 mM DECM-caged-glycine (FIG. 10). The solution in the recording pipet contained 120 mM CsCl, 10 mM EGTA, and 10 mM HEPES, adjusted to pH 7.4. The HEK cell bath solution contained 150 mM NaCl, 1 mM CaCl2, 10 mM HEPES, pH 7.4. The resistance of the recording electrode filled with buffer solution was typically 3-5 MΩ and the series resistance was 5-6 MΩ. The cells were held at a constant transmembrane voltage of −60 mV and room temperature (22° C.). […]

[3] = biological target: T1, α1-subunit of the human glycine receptor (Homo sapiens, UniProt P23415); assay: Flash lamp photolysis of DECM-caged glycine on HEK 293 cells; settings: 1 mM caged compound
T1 construct: expressed in transfected cells; host or cells: HEK 293 cells, transiently transfected (Polyfect), co-transfected with GFP plasmid as marker; cDNA from Prof; H. Betz
T1 sequence (P23415 29-457): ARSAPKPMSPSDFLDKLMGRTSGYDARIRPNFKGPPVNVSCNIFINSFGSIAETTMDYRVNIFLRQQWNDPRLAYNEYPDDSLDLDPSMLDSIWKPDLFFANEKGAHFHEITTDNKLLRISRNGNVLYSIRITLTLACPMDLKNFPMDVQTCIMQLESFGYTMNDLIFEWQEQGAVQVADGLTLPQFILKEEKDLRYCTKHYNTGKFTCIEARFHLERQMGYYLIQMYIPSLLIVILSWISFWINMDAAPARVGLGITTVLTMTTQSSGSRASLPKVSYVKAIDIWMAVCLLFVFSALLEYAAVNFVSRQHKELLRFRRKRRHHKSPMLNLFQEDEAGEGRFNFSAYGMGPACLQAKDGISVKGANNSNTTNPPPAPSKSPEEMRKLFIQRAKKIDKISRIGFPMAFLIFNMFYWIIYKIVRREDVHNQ
Procedure: The cells were used for electrophysiological experiments between 24 and 72 h after each passage. Whole-cell currents evoked by glutamate or glycine (100 μM) were recorded using the whole-cell configuration (Hamill et al., “Improved Patch-Clamp Techniques for High-Resolution Current Recording From Cells and Cell-Free Membrane Patches,” Pfluegers Arch 391:85-100 (1981), which is hereby incorporated by reference in its entirety) at room temperature, −60 mV, and pH 7.4. The experiments using DECM-caged glutamate were carried out in the absence or presence of 2 mM DECM-caged glutamate (FIG. 5A) or 1 mM 7-N,N-diethylamino-4-hydroxymethylcoumarin (2) (FIG. 5B). Alternatively, the experiments using DECM-caged glycine were carried out in the absence or presence of 1 mM DECM-caged-glycine (FIG. 10). The solution in the recording pipet contained 120 mM CsCl, 10 mM EGTA, and 10 mM HEPES, adjusted to pH 7.4. The HEK cell bath solution contained 150 mM NaCl, 1 mM CaCl2, 10 mM HEPES, pH 7.4. The resistance of the recording electrode filled with buffer solution was typically 3-5 MΩ and the series resistance was 5-6 MΩ. The cells were held at a constant transmembrane voltage of −60 mV and room temperature (22° C.). Whole-cell currents were amplified by using an Axopatch 200B (Axon Instruments, Foster City, Calif.) amplifier and filtered at 1-5 kHz by using a […], low-pass, Bessel (Dagan Corporation, Minneapolis, Minn.) filter incorporated in the amplifier. The filtered signal was digitized by a Digidata 1322A (Axon Instruments, Union City, Calif.) or a Labmaster DMA 100 KHz digitizing board (Scientific Solutions, Mentor, Ohio) controlled by pCLAMP9 software (Axon Instruments).
The light produced by the Rapp (Rapp OptoElectronics, Hamburg, Germany) xenon flash lamp (SP-20) was coupled into an optical fiber (600 μm internal diameter), which delivered the light to the cell. The concentration of DECM-caged-glycine used was 1 mM for the results in FIG. 11. Typical light energies were 150-250 μJ per pulse. […] Data were analyzed with Microcal Origin3.5 software (Microcal, Northampton, Mass.).

free glutamate in solution of caged compound (GluR6 glutamate receptor [1]) | SMILES | whole-cell current evoked by 100 μM glutamate, presence vs absence of compound (GluR6 glutamate receptor [2]; 2 mM DECM-caged glutamate, −60 mV, pH 7.4, 22° C.) | biological activity at glutamate receptors (inhibition or activation) (GluR6 glutamate receptor [2]; HEK-293 cells expressing glutamate receptors) | concentration of liberated glycine ([3]; flash-lamp light pulse, 250 μJ) | I∞, current at t=∞ ([3]; −60 mV, pH 7.4, 22° C.) | kobs, apparent pseudo first-order rate constant of the current rise ([3]; −60 mV, pH 7.4, 22° C.)
no free glutamate was detected | CCN(CC)c1ccc2c(COC(=O)CCC(N)C(=O)O)cc(=O)oc2c1 (stereo not drawn) [DECM-caged glutamate, (7-N,N-Diethylaminocoumarin-4-yl)-methyl-glutamate-trifluoroacetate] | do not inhibit | biologically inert | – | – | –
– | CCN(CC)c1ccc2c(COC(=O)CN)cc(=O)oc2c1 [DECM-caged glycine, (7-N,N-Diethylaminocoumarin-4-yl)-methyl-glycine-trifluoroacetate] | – | – | 60 µM | −4950±57 pA | 125 ± 16 s⁻¹
